We go through one compound from article PMC5506883 (Heliyon, 2017).

The test system of one assay is xanthine oxidase. The conditions noted are these: ref Sheu and Chiang, 1997; cited from earlier work.
Assay [1] deals with Horse butyrylcholinesterase (EC 3.1.1.8) (Equus caballus, UniProt P81908). In words: Anticholinesterase assay. Particulars: Butyrylcholinesterase inhibition activity IC50 μM ± SEM, mean of three experiments with SEM; 15 min at 25 °C, pH 8.0. It counts as biochemical.
Horse butyrylcholinesterase (EC 3.1.1.8), sequence (P81908 whole entry): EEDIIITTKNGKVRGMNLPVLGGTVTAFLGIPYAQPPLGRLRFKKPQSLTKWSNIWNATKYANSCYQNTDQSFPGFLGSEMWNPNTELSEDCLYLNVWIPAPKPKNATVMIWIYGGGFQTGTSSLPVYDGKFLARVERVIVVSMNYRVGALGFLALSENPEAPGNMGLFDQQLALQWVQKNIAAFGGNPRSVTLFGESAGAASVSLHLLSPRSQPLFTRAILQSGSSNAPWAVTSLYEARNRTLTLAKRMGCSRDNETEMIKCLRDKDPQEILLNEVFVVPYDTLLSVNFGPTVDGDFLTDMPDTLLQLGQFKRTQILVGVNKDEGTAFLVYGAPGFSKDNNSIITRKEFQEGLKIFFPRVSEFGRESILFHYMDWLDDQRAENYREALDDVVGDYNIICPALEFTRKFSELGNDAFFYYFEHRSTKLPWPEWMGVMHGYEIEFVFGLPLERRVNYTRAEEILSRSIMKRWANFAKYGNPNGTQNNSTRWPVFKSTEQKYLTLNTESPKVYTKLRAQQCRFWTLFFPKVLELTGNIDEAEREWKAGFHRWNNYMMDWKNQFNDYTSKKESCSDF

As usually defined, the IC50 is the concentration at which inhibition is half-maximal. Consider `Oc1ccc2c(O)c3ccccc3cc2c1O` [Compound 1, anthracene-1,2,10-triol], for which, in the assay on xanthine oxidase, the “xanthine oxidase inhibitory activity at concentration” value was 68.35 µM. This compound yielded an IC50 in assay [1] of 89.3 ± 0.21 µM.
